{"source": "patent US20030225049A1", "about": "“Method of treatment for increasing the number of NMDA receptors in a mammalian brain” (UNIVERSITE PARIS VI, priority 1998, published 2003)", "type_in_all_cases": "in vivo", "key": {"NMDA receptors": {"test_system": "NMDA receptors", "experiment": "Effect of DHEAS treatment on [3H]-MK801-labeled NMDA receptor sites in rat brain (quantitative autoradiography)", "conditions": "male Wistar rats, 30 mg/kg i.p. twice daily for 5 days", "from_the_text": "1.1 Labeling the NMDA Receptors with the Ligand [^3H]-MK801\nThe NMDA receptors in the rat brain were labeled by means of the quantitative autoradiography technique, thereby making it possible to visualize and quantify the number of receptors in different regions of the brain.\nThe radioactive ligand which makes it possible to specifically recognize the sites of the NMDA receptors is tritium-labeled dizocilpine (MK801), i.e. [^3H]-MK801 (Kemp et al. TINS (1987) 294-298).\nMale rats (Wistar) weighing between 200 and 220 g were decapitated. Their brains were rapidly removed and placed in liquid isopentane at a temperature of −40° C. The brains were then stored at −80° C. until used.\nBrain sections having a thickness of […] were obtained using a Frigocut 2800® cryostat, which is marketed by Reichert Jung.\nThe brain sections were preincubated in a 50 mM Tris-acetate, pH 7.4, buffer at 4° C. for 30 minutes. They were then dried rapidly at room temperature.\nThe sections were then incubated with the radioligand [^3H]-MK801, sold by New England Nuclear (Boston, Mass., USA) and having a specific activity of 24 Ci/mmol, at a concentration of 5 nM in the abovementioned buffer at 4° C. for a period of 4 hours.\nControl sections were incubated with MK801, which was present at a concentration of 10^−5 M and which was not labeled with tritium, in order to determine non-specific binding.\nAll the sections were then rinsed for 5 seconds and then for 90 minutes in the same cold buffer.\nThe sections were dried at room temperature and then exposed on tritium-hyperfilm films (Amersham) at 4° C. in the dark for 4 weeks in autoradiography cassettes.\nThe films were developed for 2 minutes in a Kodak D19 developer and then fixed in Kodak Rapid fixer and finally rinsed for an hour in running water.\nThe autoradiographic labeling was quantified by densitometry using the RAG-200 software sold by BIOCOM (Les Ulis, France), and the binding was measured by relative optical density.\n30 mg of DHEAS were administered/kg, intraperitoneally and twice daily, to non-castrated male Wistar rats for 5 days. The rats were sacrificed on the 5th day, 30 minutes after the last injection of DHEAS.\nThe apparent [^3H]-MK801-binding sites are measured by optical density OD for the total specific binding of [^3H]-MK801 in the cortex and different regions of the hippocampus: CA1; CA3; lateral blade of the dentate gyrus, DG1b, and the median blade of the dentate gyrus, DGmb."}, "[1]": {"test_system": "NR1 subunit of the NMDA receptor", "experiment": "Immunohistochemistry of NR1 subunits of NMDA receptors in rat brain after DHEAS treatment", "conditions": "after 5, 20 and 30 days of treatment, 30 mg/kg i.p. twice daily", "procedure": "(§1) Male Wistar rats weighing 200-220 g (IFFA CREDO, Paris) were housed at 21° C. with a standard 12 h light/12 h dark cycle and with food and water being freely available. The animals received intraperitoneal (i.p.) injections of either the vehicle dimethyl sulfoxide (DMSO; 0.2 ml/250 g body weight(b.w.) or dehydroepiandrosterone sulfate (DHEAS; 30 mg/kg b.w. dissolved in DMSO (0.2 ml/250 g b.w)) twice daily, at 8 a.m. and 6 p.m., for a period of either 5, 20 or 30 days. The last injection was given at 8 a.m. of the 5th, 20th or 30th day. All the animals were killed 2 hours after the last injection. Six groups of animals (ten animals per group) were used. Three control groups received DMSO alone for a period of 5, 20 or 30 days respectively, and, in a similar manner, three groups received DHEAS treatment for a period of 5, 20 or 30 days respectively.\n(§2) The rats were killed by decapitation and the brains were rapidly removed from the skull, quickly frozen in liquid isopentane at −40° C., and kept at −80° C. until sectioned. The frozen brains were cut into 20 um thick sections in a cryostat (Frigocut 2800, Reichert Jung). […]\n(§3) The increase can be quantified by the SCION program developed at the National Institutes of Health (USA). […]"}, "[2]": {"test_system": "NR2 subunits of NMDA receptors (NMDA R2 A/B)", "experiment": "Immunohistochemistry of NR2 subunits of NMDA receptors in rat brain after DHEAS treatment", "conditions": "after 5, 20 and 30 days of treatment, 30 mg/kg i.p. twice daily", "procedure": "as §1, §2, §3"}}, "data": [{"substance": "dehydroepiandrosterone sulfate [DHEAS]", "values": [{"measurement": "number of [3H]-MK801 sites, OD", "setting": "NMDA receptors; CA1", "result": "54.01 ± 4.05"}, {"measurement": "number of [3H]-MK801 sites, OD", "setting": "NMDA receptors; CA3", "result": "33.37 ± 4.94"}, {"measurement": "number of [3H]-MK801 sites, OD", "setting": "NMDA receptors; Cortex", "result": "24.88 ± 2.73"}, {"measurement": "number of [3H]-MK801 sites, OD", "setting": "NMDA receptors; DG1b (dentate gyrus, lateral blade)", "result": "42.15 ± 4.31"}, {"measurement": "number of [3H]-MK801 sites, OD", "setting": "NMDA receptors; DGmb (dentate gyrus, medial blade)", "result": "43.13 ± 3.53"}, {"measurement": "number of NR1 subunits (in words)", "setting": "[1]", "result": "clear increase"}, {"measurement": "NR2 subunits (in words)", "setting": "[2]", "result": "slight increase"}]}]}
